Assay results from US8975415B2, “Chromane compounds” (CoMentis, Inc., priority 2012, dated 2015).

Experiments:
Aβ42 = test: Brain Aβ reduction in rats (Aβ42 ELISA); assay type: in vivo, Sprague-Dawley rats; conditions: rat, oral
Experimental: Effects on brain Aβ reduction in rats were determined with reference to the method described in the WO2012/054510. […] Concretely, the test was conducted with the method as below.
Test compounds were prepared in a vehicle of 35% HPβCD in H2O. The test compound was formulated the same day as oral dosing. Doses (see [Table. 1]) were based on the free base equivalent. Sonication was used where required to facilitate the formulation.
Male Sprague-Dawley rats (150-300 grams) were obtained from Charles River Japan (Atsugi, Japan) and were given approximately 4 days of acclimation. Food and water was made available ad libitum throughout the study. Animals were visually inspected for health before being included into the study group, and were randomly assigned to the treatment and control groups to achieve similar group mean body weights. The dosing solution (dose volume 5 mL/kg) was administered directly into the stomach using a rodent gavage needle. Control animals received oral administration of equivalent volume of the vehicle.
At a time post-dose (e.g., 3 hours; see [Table. 1]), animals were euthanized with isoflurane. […] Plasma was separated using centrifugation at 15,000 rpm (20,400×g) for 5 minutes at 4° C. and subsequently stored at −80° C. After blood sampling, CSF (cerebrospinal fluid) was carefully withdrawn from the cisterna magna using a 29 gauge needle after a quick dissection to expose the atlantooccipital membrane. The CSF samples were centrifuged at 15,000 rpm (20,400×g) for 5 minutes to confirm free of blood contamination and stored at −80° C. Immediately after decapitation, the hippocampus were isolated on ice, and quickly frozen in liquid nitrogen and stored at −80° C.
Fragments of the hippocampus were weighed while frozen. A 10-fold volume (w:v) of TBS (Tris-buffered saline) supplemented with a Complete Mini protease inhibitor tablet (catalog number: 11 836 153 001, Roche Diagnostics, In, USA) was added. The hippocampus were homogenized using sonication on ice in microcentrifuge tube. Resulting homogenates were centrifuged at 100,000×g for 1 hour in a refrigerated centrifuge at 4° C. Supernatants were collected as soluble fraction.
Each concentration of Aβ42 was divided by the mean concentration of Aβ42 of vehicle-treated group, and these ratios were converted to percentages.

hERG potassium channel = hERG potassium channel (Homo sapiens (Human), UniProt Q12809); test: hERG inhibition, automated planar patch-clamp in hERG-expressing CHO cells; conditions: read-out: Test Example 5 hERG IC50; whole-cell patch clamp, room temperature
hERG potassium channel, sequence (Q12809 whole entry): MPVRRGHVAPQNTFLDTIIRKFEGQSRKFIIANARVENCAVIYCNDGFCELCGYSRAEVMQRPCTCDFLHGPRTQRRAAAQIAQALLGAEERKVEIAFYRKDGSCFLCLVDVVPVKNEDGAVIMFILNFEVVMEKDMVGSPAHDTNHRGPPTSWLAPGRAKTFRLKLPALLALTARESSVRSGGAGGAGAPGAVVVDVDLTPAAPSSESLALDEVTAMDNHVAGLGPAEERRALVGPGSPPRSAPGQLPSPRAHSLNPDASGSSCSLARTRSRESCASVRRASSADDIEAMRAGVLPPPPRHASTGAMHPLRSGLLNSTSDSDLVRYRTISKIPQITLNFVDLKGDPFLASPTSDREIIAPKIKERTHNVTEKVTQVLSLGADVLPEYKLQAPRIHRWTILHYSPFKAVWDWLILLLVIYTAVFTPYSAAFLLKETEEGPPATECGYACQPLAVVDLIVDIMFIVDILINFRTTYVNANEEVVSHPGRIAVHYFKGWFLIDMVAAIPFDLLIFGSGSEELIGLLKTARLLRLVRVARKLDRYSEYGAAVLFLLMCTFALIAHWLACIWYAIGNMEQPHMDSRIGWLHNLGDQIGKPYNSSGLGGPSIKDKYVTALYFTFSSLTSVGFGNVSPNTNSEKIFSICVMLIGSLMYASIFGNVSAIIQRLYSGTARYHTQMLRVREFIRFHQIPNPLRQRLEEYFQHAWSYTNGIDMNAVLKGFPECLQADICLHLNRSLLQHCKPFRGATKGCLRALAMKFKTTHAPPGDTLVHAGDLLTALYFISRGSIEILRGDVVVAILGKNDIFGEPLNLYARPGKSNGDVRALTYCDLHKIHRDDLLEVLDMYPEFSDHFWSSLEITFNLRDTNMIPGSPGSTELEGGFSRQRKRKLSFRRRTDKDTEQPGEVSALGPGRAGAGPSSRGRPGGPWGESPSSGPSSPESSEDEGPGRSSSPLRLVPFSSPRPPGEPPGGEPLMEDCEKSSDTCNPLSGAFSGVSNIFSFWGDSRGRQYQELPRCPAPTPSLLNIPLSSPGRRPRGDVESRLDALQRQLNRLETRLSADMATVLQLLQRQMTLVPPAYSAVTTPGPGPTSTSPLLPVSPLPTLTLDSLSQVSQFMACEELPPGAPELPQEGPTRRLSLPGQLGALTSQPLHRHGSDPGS

BACE1 [1] = biological target: T1, BACE1 (Homo sapiens (Human), UniProt P56817); test: Measurement of Aβ production inhibition in cell (SK-N-BE(2) neuroblastoma cells, Aβ40 ELISA); conditions: Test Example 3 IC50, Aβ40 production, SK-N-BE(2) cells, 6 hours
Target sequence in this assay (P56817 46-501): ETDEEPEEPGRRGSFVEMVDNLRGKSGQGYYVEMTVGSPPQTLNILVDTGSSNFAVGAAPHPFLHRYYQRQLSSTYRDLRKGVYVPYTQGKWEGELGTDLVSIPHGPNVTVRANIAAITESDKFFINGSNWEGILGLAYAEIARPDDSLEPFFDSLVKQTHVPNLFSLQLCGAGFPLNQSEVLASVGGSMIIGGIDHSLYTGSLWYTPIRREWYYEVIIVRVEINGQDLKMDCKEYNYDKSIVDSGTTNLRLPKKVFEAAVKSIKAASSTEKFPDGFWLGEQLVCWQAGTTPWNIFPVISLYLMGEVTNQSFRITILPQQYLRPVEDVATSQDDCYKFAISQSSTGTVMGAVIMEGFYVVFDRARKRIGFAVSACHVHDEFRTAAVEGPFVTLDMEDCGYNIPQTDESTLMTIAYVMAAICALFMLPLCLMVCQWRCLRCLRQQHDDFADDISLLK
Experimental: The potency of compounds against BACE1 activity was determined in a cellular assay of Aβ production. […] Test compounds were dissolved in dimethyl sulfoxide and diluted with dimethyl sulfoxide and put into RPMI1640/5% FBS/penicillin-streptomycin media (final dimethyl sulfoxide concentration is 0.5%). […] CellTiter-Glo Substrate was dissolved into CellTiter-Glo Buffer and added to the plates in 95 μL/well. After shaking the plates for 2 minutes, the whole sample was transferred into a white 96-well plate and luminescence was measured for ATP quantification as the cell viability. Aβ concentration measured by ELISA was normalized by the viability of the corresponding cells.

BACE1 [2] = biological target: T1, BACE1; test: Measurement of BACE1 inhibition by fluorescence resonance energy transfer (FRET), MCA substrate; conditions: FRET
Target sequence in this assay (P56817 75-416): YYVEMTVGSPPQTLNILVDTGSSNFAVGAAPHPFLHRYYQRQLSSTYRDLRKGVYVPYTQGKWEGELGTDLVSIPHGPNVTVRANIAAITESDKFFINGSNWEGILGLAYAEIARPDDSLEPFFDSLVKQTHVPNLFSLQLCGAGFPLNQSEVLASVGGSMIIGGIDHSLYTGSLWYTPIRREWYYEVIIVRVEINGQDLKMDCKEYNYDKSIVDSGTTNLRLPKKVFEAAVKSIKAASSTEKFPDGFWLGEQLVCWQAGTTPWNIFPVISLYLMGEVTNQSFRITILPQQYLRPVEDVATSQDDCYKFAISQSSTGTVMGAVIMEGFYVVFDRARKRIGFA

BACE1 [3] = biological target: T1, BACE1; test: Measurement of BACE1 inhibition by time resolved fluorescence resonance energy transfer (TR-FRET); assay type: biochemical; conditions: Eu-CEVNLDAEFK-QSY 7 substrate, read-out: Test Example 2 IC50
Target sequence in this assay (P56817 75-416): as above
Experimental: If the sample contains BACE1 activity, the Eu chelate and the quencher will be separated as the substrate is cleaved. The Eu-signal increases and it can be measured by time-resolved fluorometry, EnVision™, 30 minutes after the substrate (final concentration 300 nM) was added.

With `CC1(C)Oc2ccc(NC(=O)c3ccc(Cl)cn3)cc2[C@@]2(COC(N)=N2)C12COC2` [Example 218, N-[(4S)-2-amino-2′,2′-dimethyldispiro[1,3-oxazole-4,4′-chromene-3′,3″-oxetan]-6′-yl]-5-chloropyridine-2-carboxamide] the “Test Example 4 Aβ42 reduction (%)” value (Aβ42; 3 mg/kg, 2.5 hours) was 24% and the “Test Example 4 Aβ42 reduction (%)” value (Aβ42; 10 mg/kg, 2.5 hours) was 31%.
For `COc1cnc(C(=O)Nc2ccc3c(c2)[C@@]2(COC(N)=N2)C2(CC2)C(C)(C)O3)cn1` [Example 230, N-[(4′R)-2″-amino-2′,2′-dimethyldispiro[cyclopropane-1,3′-chromene-4′,4″-[1,3]oxazol]-6′-yl]-5-methoxypyrazine-2-carboxamide], the melting point was 191 °C.
For `CC1(C)Oc2ccc(NC(=O)c3cnc(C(F)F)cn3)cc2[C@@]2(COC(N)=N2)C12CC2` [Example 224, N-[(4′R)-2″-amino-2′,2′-dimethyldispiro[cyclopropane-1,3′-chromene-4′,4″-[1,3]oxazol]-6′-yl]-5-(difluoromethyl)pyrazine-2-carboxamide], the “Test Example 4 Aβ42 reduction (%)” value (Aβ42; 1 mg/kg, 3 hours) was 21%, the “Test Example 4 Aβ42 reduction (%)” value (Aβ42; 3 mg/kg, 3 hours) was 35% and the IC50 (hERG potassium channel) was 15100 nM.
For `CC1(C)Oc2ccc(NC(=O)c3ccc(Cl)cn3)cc2[C@@]2(COC(N)=N2)C12CC2` [Example 221], the “Test Example 4 Aβ42 reduction (%)” value (Aβ42; 1 mg/kg, 3 hours) was 24%, the “Test Example 4 Aβ42 reduction (%)” value (Aβ42; 3 mg/kg, 3 hours) was 42% and the IC50 (BACE1 [1]) was 0.16 nM. For the same compound, the Ki (BACE1 [2]; read-out: Test Example 1 BACE1 MCA Ki, MCA substrate) was 37.8 nM and the IC50 (BACE1 [2]; read-out: Test Example 1 IC50, MCA-SEVNLDAEFK(DNP)-NH2 substrate, pH 4.4) was 81.8 nM.
Work on `CC1(C)Oc2ccc(NC(=O)c3ccc(Cl)cn3)cc2[C@@]2(COC(N)=N2)C12COC2` (hydrate or solvate) [Example 218, N-[(4S)-2-amino-2′,2′-dimethyldispiro[1,3-oxazole-4,4′-chromene-3′,3″-oxetan]-6′-yl]-5-chloropyridine-2-carboxamide] yielded a melting point of 165 °C.
In the case of `COc1cnc(C(=O)Nc2ccc3c(c2)[C@@]2(COC(N)=N2)C2(COC2)C(C)(C)O3)cn1` [Example 220], the “Test Example 4 Aβ42 reduction (%)” value (Aβ42; 3 mg/kg, 1.5 hours) is reported as 21%, the “Test Example 4 Aβ42 reduction (%)” value (Aβ42; 10 mg/kg, 1.5 hours) is reported as 27% and the IC50 (hERG potassium channel) is reported as greater than 10000 nM.
For `Cc1cn2ccc(-c3ccc4c(c3)C3(COC(N)=N3)C3(COC3)C3(CCC3)O4)cc2n1` (stereo not drawn) [RP 66], the IC50 (BACE1 [3]) was 135000 nM and the IC50 (hERG potassium channel) was greater than 10000 nM.
For `CC1(C)Oc2ccc(-c3cc(Cl)cnc3F)cc2C2(COC(N)=N2)C12COC2` (stereo not drawn) [RP 154], the IC50 (BACE1 [3]) was 313 nM, the IC50 (BACE1 [1]) was 32 nM and the IC50 (hERG potassium channel) was greater than 1000 nM.
With `COc1cnc(C(=O)Nc2ccc3c(c2)[C@@]2(COC(N)=N2)C2(CC2)C(C)(C)O3)cn1` [Example 223, N-[(4′R)-2″-amino-2′,2′-dimethyldispiro[cyclopropane-1,3′-chromene-4′,4″-[1,3]oxazol]-6′-yl]-5-methoxypyrazine-2-carboxamide] the “Test Example 4 Aβ42 reduction (%)” value (Aβ42; 1 mg/kg, 3 hours) was 19% and the “Test Example 4 Aβ42 reduction (%)” value (Aβ42; 3 mg/kg, 3 hours) was 34%.
With `NC1=NC2(CO1)c1cc(-c3cc(Cl)cnc3F)ccc1OCC21CC1` (stereo not drawn) [RP 104] the IC50 (BACE1 [3]) was 1130 nM and the IC50 (hERG potassium channel) was 3250 nM.
`Cn1cc2cc(-c3ccc4c(c3)C3(COC(N)=N3)C3(CC3)CO4)ccc2n1` (stereo not drawn) [RP 213] gave an IC50 (BACE1 [3]) of 39600 nM and an IC50 (hERG potassium channel) greater than 10000 nM.
Compound `CC1(C)Oc2ccc(NC(=O)c3cnc(C(F)F)cn3)cc2[C@@]2(COC(N)=N2)C12CC2.Cl` has a melting point of 254 °C.
